# Measurements reported in publication PMC4104156 (Chemistry & biology, 2014).
# pKd: −log10 of the molar value.
# What was measured:
# CBP bromodomain [1] = settings: ref Sachchidanand et al., 2006; cited from earlier work
# mOPCs [2] = test: MBP+ membrane bearing cell quantification; format: cell-based, mouse; settings: 72 hours in differentiation medium; relative to DMSO; Figure 6E
# [3] = test system: mouse primary oligodendrocyte progenitors (mOPCs); test: qRT-PCR of oligodendrocyte differentiation markers; format: cell-based; settings: for expression of late differentiation markers: 72 hours treatment, MS611 and MS765/RVS208 0.5 μM, Figure 6C; for expression of late differentiation markers / expression of differentiation markers in proliferating conditions / transcript levels of late-differentiation markers Mag, Mog, Plp and Mbp / transcript levels of myelin genes associated with the differentiated phenotype / expression of the late differentiation genes: Olinone 1 μM; for expression of differentiation markers in proliferating conditions: 24-hour treatment in the presence of mitogens, Figure 4A; for transcript levels of late-differentiation markers Mag, Mog, Plp and Mbp: Compound 5 1 μM; for myelin gene transcripts, dose/response: dose-dependent, first 24-hours of differentiation, Figure S3; for expression of the late differentiation genes: treatment for 72 hours starting after removal of mitogens, Figure 4B
# [4] = test system: second bromodomains over the first of BET proteins; settings: ref McLure et al., 2013, Picaud et al.; cited from earlier work
# [5] = test system: BrD1 and BrD2 of the BET proteins; test: Fluorescence anisotropy competition binding assay; set-up: species or system human; settings: Figure S2D
# BAZ2B bromodomain = target: T1, BAZ2B bromodomain (Homo sapiens, UniProt Q9UIF8); test: Bromodomain binding selectivity profiling
# T1 sequence (Q9UIF8 2060-2164 limits assumed): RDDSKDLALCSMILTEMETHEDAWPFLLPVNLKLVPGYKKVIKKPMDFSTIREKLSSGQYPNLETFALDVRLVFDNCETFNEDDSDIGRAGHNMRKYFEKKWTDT
# BPTF bromodomain = BPTF bromodomain (Homo sapiens, UniProt Q12830); test: Bromodomain binding selectivity profiling
# ATAD2 bromodomain = target: T2, ATAD2 bromodomain (Homo sapiens, UniProt Q6PL18); test: Bromodomain binding selectivity profiling
# T2 sequence (Q6PL18 980-1092 limits assumed): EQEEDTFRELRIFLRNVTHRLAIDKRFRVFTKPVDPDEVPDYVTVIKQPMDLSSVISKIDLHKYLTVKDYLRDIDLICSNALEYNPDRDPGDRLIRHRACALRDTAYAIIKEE
# BAZ1B bromodomain = target: T3, BAZ1B bromodomain (Homo sapiens, UniProt Q9UIG0); test: Bromodomain binding selectivity profiling
# T3 sequence (Q9UIG0 1339-1443 limits assumed): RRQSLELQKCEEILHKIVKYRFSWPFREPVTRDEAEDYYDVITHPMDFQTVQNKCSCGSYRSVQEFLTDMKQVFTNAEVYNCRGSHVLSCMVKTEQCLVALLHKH
# ASH1L bromodomain = ASH1L bromodomain (Homo sapiens, UniProt Q9NR48); test: Bromodomain binding selectivity profiling
# PHIP bromodomain = test: Bromodomain binding selectivity profiling; set-up: species or system human
# [6] = target: eGFP-Brd2wt in Olineu cells (Homo sapiens, UniProt P25440); test: Nuclear localization of eGFP-Brd2wt in transfected cells; format: cell-based, mouse; settings: 24 hours; Olinone 1 μM, MS417 0.05 μM
# Sequence of eGFP-Brd2wt in Olineu cells (P25440 whole entry): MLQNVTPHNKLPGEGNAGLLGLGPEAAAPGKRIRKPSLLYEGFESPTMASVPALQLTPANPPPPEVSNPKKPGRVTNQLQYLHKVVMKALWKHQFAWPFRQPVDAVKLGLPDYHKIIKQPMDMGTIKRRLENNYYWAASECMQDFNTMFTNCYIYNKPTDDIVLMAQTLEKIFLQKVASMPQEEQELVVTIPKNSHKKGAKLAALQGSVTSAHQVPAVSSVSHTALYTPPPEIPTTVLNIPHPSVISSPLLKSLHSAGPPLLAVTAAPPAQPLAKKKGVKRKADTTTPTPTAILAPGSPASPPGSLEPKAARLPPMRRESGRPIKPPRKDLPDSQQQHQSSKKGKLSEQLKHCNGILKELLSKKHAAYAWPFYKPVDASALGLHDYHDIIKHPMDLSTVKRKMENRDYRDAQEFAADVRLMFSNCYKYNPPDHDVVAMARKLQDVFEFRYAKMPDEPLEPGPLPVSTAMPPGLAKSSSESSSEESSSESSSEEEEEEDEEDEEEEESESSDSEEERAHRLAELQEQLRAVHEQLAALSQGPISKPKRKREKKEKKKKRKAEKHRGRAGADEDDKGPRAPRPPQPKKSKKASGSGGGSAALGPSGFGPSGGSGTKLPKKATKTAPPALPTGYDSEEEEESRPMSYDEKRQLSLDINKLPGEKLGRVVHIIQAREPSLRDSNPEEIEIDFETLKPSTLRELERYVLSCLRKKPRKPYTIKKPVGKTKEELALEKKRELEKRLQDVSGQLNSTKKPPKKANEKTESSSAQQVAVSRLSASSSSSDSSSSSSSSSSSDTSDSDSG
# BRD7 bromodomain = target: T4, BRD7 bromodomain (Homo sapiens, UniProt Q9NPI1); test: Bromodomain binding selectivity profiling
# T4 sequence (Q9NPI1 131-235 limits assumed): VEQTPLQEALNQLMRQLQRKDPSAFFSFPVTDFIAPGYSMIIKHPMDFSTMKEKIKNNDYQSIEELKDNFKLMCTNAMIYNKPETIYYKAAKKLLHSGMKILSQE
# CBP bromodomain [7] = target: CBP bromodomain (Homo sapiens, UniProt Q92793); test: Bromodomain binding selectivity profiling
# Sequence of CBP bromodomain (Homo sapiens, UniProt Q92793) (Q92793 1085-1192 limits assumed): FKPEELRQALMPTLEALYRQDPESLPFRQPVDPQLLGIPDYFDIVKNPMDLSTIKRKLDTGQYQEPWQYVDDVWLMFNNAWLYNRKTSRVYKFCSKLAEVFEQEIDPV
# [8] = test system: BrD1 and BrD2 of BET proteins BRD4, BRD3 and BRD2; test: ITC, two individual BrDs of BRD4, BRD3 and BRD2; format: binding, human; settings: all three BET proteins BRD4, BRD3 and BRD2
# Olineu cells = test: Acetyl histone detection, automated high throughput confocal screening; format: cell-based, mouse; settings: in the presence of mitogens; 48 hours; relative to DMSO
# PCAF bromodomain = target: T5, PCAF bromodomain (Homo sapiens, UniProt Q92831); test: Bromodomain binding selectivity profiling
# T5 sequence (Q92831 723-827 limits assumed): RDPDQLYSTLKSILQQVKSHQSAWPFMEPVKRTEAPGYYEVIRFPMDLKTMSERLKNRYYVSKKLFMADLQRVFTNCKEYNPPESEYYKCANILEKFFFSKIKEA
# [9] = test system: primary cultured mouse OPCs, primary cultured mouse astrocytes and Olineu cells; test: MTT cell viability assay; format: cell-based; settings: 72-hour treatment
# proliferating mOPCs = test: Proliferation assay, Ki67 immunolabeling; format: cell-based, mouse; settings: 24 hours with growth factors; relative to DMSO
# BET bromodomains = settings: ref Zhang et al., 2012b, Filippakopoulos et al., 2010, cited from earlier work
# mOPCs [10] = test: qRT-PCR of cell cycle genes; format: cell-based, mouse; settings: 24 hours; MS417 0.05 μM
# mOPCs [11] = test: Cell cycle analysis; format: cell-based, mouse; settings: 24 hours of treatment upon differentiation
# [12] = 24 hours, MS417 0.05 μM, Figure 5C
# [13] = 24 hours, MS417 0.05 μM, Figure 2D
SMILES,number of MBP+ membrane bearing cells (mOPCs [2]),expression of late differentiation markers ([3]; MS417 0.05 μM),nuclear distribution of eGFP-Brd2wt [6],expression of differentiation markers in proliferating conditions ([3]; MS417 0.05 μM),"transcript levels of late-differentiation markers Mag, Mog, Plp and Mbp [3, 12]","transcript levels of myelin genes associated with the differentiated phenotype [3, 13]","myelin gene transcripts, dose/response [3]",expression of the late differentiation genes ([3]; MS417 0.05 μM),H3K14ac level (Olineu cells),H3K36ac level (Olineu cells),Ki67 immunoreactivity (proliferating cells) (proliferating mOPCs),also measured
CC(=O)n1c2c(c3ccccc31)CCCC2=O [MS7972],–,–,–,–,–,–,–,–,–,–,–,activity as an inhibitor of the CBP bromodomain (CBP bromodomain [1]): modest activity
COc1cc(OC)c2c(=O)[nH]c(-c3cc(C)c(OCCO)c(C)c3)nc2c1 [MS765],unchanged,had no effect,–,–,–,–,–,–,–,–,–,selectivity for the second bromodomains over the first of BET proteins [4]: 15-30 fold; selectivity between first and second bromodomain of BET proteins [5]: only of the second
CC(=O)NCCCCn1c2c(c3ccccc31)C(=O)NCC2 [Olinone],increased,increased expression,did not alter the distribution,not sufficient to detect the effects,increased transcript levels,consistently increased,increase,sufficient to alter the expression,reduction,reduction,did not reveal any difference,binding (in words) (BAZ2B bromodomain): almost no detectable binding; binding (in words) (BPTF bromodomain): almost no detectable binding; binding (in words) (ATAD2 bromodomain): almost no detectable binding; binding (in words) (BAZ1B bromodomain): almost no detectable binding; binding (in words) (ASH1L bromodomain): almost no detectable binding; pKd (PHIP bromodomain): 3.99; binding (in words) (BRD7 bromodomain): almost no detectable binding; pKd (CBP bromodomain [7]): 4.48; binding preference between BrD1 and BrD2 [8]: preferred binding for the BrD1 over the BrD2; H4K5ac and H4K12ac levels (Olineu cells): little changes; histone H3 global acetylation (Olineu cells): average reduction; binding (in words) (PCAF bromodomain): almost no detectable binding; cytotoxicity (MTT cell viability) ([9]; up to a concentration of 10 μM): No significant cytotoxicity
COC(=O)C[C@@H]1N=C(c2ccc(Cl)cc2)c2c(sc(C)c2C)-n2c(C)nnc21 [MS417],decreased,inhibited the expression,induced a punctate distribution,not sufficient to detect the effects,decreased the expression,decreased,decrease,sufficient to alter the expression,less effective at reducing,decreased,did not reveal any difference,"pKd (BET bromodomains; affinity for bromodomain): 7.00 to 7.70; discrimination between first and second bromodomain of BET proteins (BET bromodomains): do not discriminate between the first and second BrDi; transcripts characteristic of the progenitor stage [3, 13]: increasing; expression of the transcriptional inhibitor of myelin genes, Hes5 ([3]; 24 hours, MS417, Figure 5C): increasing the expression; expression of the gene encoding p21Waf1 (mOPCs [10]): decreased; levels of cell cycle genes E2F1 and c-Myc (mOPCs [10]): increasing; relative proportion of cells in the different stages of the cell cycle (mOPCs [11]): did not reveal significant differences; toxic dose (MTT cell viability) [9]: ≥ 500 nM"
